Data published in ChEMBL document CHEMBL3885861, “Open TG-GATES”.

Species on record: Rattus norvegicus
Assay: Open TG-GATES - Regimen: Single
Type: toxicity, organism-based, Sprague-Dawley
Parameters: regimen Single, gender Male, age 6 weeks
Settings: in vivo, po, 2000 mg/kg, route gavage, dose level High; for APTT / Bas / Eos / Fbg / Hb / Ht / Lym / MCH / MCHC / MCV / Mono / Neu / PT / Plat / RBC / Ret / WBC: tissue Blood; for KIDNEY_L / KIDNEY_R / KIDNEY_TOTAL: tissue Kidney; for LIVER: tissue Liver; for A/G / ALP / ALT / AST / BUN / CRE / Ca / Cl / DBIL / GLC / IP / K / LDH / Na / PL / RALB / TBIL / TC / TG / TP / gamma-GTP: tissue Plasma

COc1ccc(O)c(C(C)(C)C)c1.COc1ccc(O)cc1C(C)(C)C [BUTYLATED HYDROXYANISOLE]
TERMINAL_BW (3 h): 203.7 g
APTT (3 h): 15.1 s
Bas (3 h): 0.1%
Eos (3 h): 0.6%
Fbg (3 h): 266 mg/dL
Hb (3 h): 13.4 g/dL
Ht (3 h): 39%
Lym (3 h): 75.5%
MCH (3 h): 21.4 pg
MCHC (3 h): 34.3%
MCV (3 h): 62.3 fL
Mono (3 h): 1.9%
Neu (3 h): 20.8%
PT (3 h): 12.1 s
Plat (3 h): 140.3 x10_4/uL
RBC (3 h): 626.2 x10_4/ul
Ret (3 h): 8.2%
WBC (3 h): 81.2 x10_2/uL
KIDNEY_L (3 h): 0.9 g
KIDNEY_R (3 h): 0.8 g
KIDNEY_TOTAL (3 h): 1.7 g
LIVER (3 h): 7.8 g
A/G (3 h): 0.9
ALP (3 h): 1489.2 IU/L
ALT (3 h): 51.4 IU/L
AST (3 h): 79 IU/L
BUN (3 h): 9.4 mg/dL
CRE (3 h): 0.2 mg/dL
Ca (3 h): 10.9 mg/dL
Cl (3 h): 105.8 meq/L
DBIL (3 h): 0.028 mg/dL
GLC (3 h): 174.6 mg/dL
IP (3 h): 10 mg/dL
K (3 h): 3.6 meq/L
LDH (3 h): 63.6 IU/L
Na (3 h): 142 meq/L
PL (3 h): 119 mg/dL
RALB (3 h): 2.7 g/dL
TBIL (3 h): 0.096 mg/dL
TC (3 h): 70.4 mg/dL
TG (3 h): 55.4 mg/dL
TP (3 h): 5.7 g/dL
gamma-GTP (3 h): 1 IU/L
TERMINAL_BW (6 h): 202.1 g
APTT (6 h): 16.4 s
Bas (6 h): 0.2%
Eos (6 h): 0.6%
Fbg (6 h): 267.6 mg/dL
Hb (6 h): 13.5 g/dL
Ht (6 h): 39.6%
Lym (6 h): 68.4%
MCH (6 h): 20.9 pg
MCHC (6 h): 34.2%
MCV (6 h): 61.1 fL
Mono (6 h): 2.8%
Neu (6 h): 27%
PT (6 h): 12.6 s
Plat (6 h): 154.9 x10_4/uL
RBC (6 h): 646.8 x10_4/ul
Ret (6 h): 7.5%
WBC (6 h): 78.3 x10_2/uL
KIDNEY_L (6 h): 0.9 g
KIDNEY_R (6 h): 0.9 g
KIDNEY_TOTAL (6 h): 1.7 g
LIVER (6 h): 7.7 g
A/G (6 h): 0.8
ALP (6 h): 1463.6 IU/L
ALT (6 h): 49 IU/L
AST (6 h): 73.8 IU/L
BUN (6 h): 11.2 mg/dL
CRE (6 h): 0.2 mg/dL
Ca (6 h): 10.8 mg/dL
Cl (6 h): 106.8 meq/L
DBIL (6 h): 0.024 mg/dL
GLC (6 h): 172.4 mg/dL
IP (6 h): 10.4 mg/dL
K (6 h): 4 meq/L
LDH (6 h): 62.4 IU/L
Na (6 h): 141.8 meq/L
PL (6 h): 124.2 mg/dL
RALB (6 h): 2.6 g/dL
TBIL (6 h): 0.084 mg/dL
TC (6 h): 75.8 mg/dL
TG (6 h): 40.8 mg/dL
TP (6 h): 5.8 g/dL
gamma-GTP (6 h): 1.2 IU/L
TERMINAL_BW (9 h): 199.8 g
APTT (9 h): 17.5 s
Bas (9 h): 0.2%
Eos (9 h): 0.7%
Fbg (9 h): 289 mg/dL
Hb (9 h): 13.9 g/dL
Ht (9 h): 40.9%
Lym (9 h): 68.4%
MCH (9 h): 20.7 pg
MCHC (9 h): 34%
MCV (9 h): 60.9 fL
Mono (9 h): 1.6%
Neu (9 h): 28.5%
PT (9 h): 13 s
Plat (9 h): 141.5 x10_4/uL
RBC (9 h): 671.8 x10_4/ul
Ret (9 h): 7%
WBC (9 h): 76.1 x10_2/uL
KIDNEY_L (9 h): 0.9 g
KIDNEY_R (9 h): 0.9 g
KIDNEY_TOTAL (9 h): 1.8 g
LIVER (9 h): 7.2 g
A/G (9 h): 0.8
ALP (9 h): 1379.8 IU/L
ALT (9 h): 40.8 IU/L
AST (9 h): 69 IU/L
BUN (9 h): 9.2 mg/dL
CRE (9 h): 0.2 mg/dL
Ca (9 h): 10.9 mg/dL
Cl (9 h): 108.2 meq/L
DBIL (9 h): 0.03 mg/dL
GLC (9 h): 167.6 mg/dL
IP (9 h): 10.2 mg/dL
K (9 h): 4 meq/L
LDH (9 h): 58.6 IU/L
Na (9 h): 143.6 meq/L
PL (9 h): 141.4 mg/dL
RALB (9 h): 2.7 g/dL
TBIL (9 h): 0.096 mg/dL
TC (9 h): 87.6 mg/dL
TG (9 h): 42.2 mg/dL
TP (9 h): 5.9 g/dL
gamma-GTP (9 h): 1 IU/L
TERMINAL_BW (24 h): 207.8 g
APTT (24 h): 16.8 s
Bas (24 h): 0.2%
Eos (24 h): 0.8%
Fbg (24 h): 289.8 mg/dL
Hb (24 h): 13.7 g/dL
Ht (24 h): 39.6%
Lym (24 h): 78.6%
MCH (24 h): 21.2 pg
MCHC (24 h): 34.6%
MCV (24 h): 61.3 fL
Mono (24 h): 2.2%
Neu (24 h): 17.4%
PT (24 h): 12.3 s
Plat (24 h): 155.8 x10_4/uL
RBC (24 h): 646.8 x10_4/ul
Ret (24 h): 5.8%
WBC (24 h): 68 x10_2/uL
KIDNEY_L (24 h): 0.9 g
KIDNEY_R (24 h): 0.9 g
KIDNEY_TOTAL (24 h): 1.8 g
LIVER (24 h): 9.3 g
A/G (24 h): 0.8
ALP (24 h): 1603 IU/L
ALT (24 h): 53 IU/L
AST (24 h): 73.6 IU/L
BUN (24 h): 12.6 mg/dL
CRE (24 h): 0.2 mg/dL
Ca (24 h): 11.5 mg/dL
Cl (24 h): 108.6 meq/L
DBIL (24 h): 0.044 mg/dL
GLC (24 h): 155.2 mg/dL
IP (24 h): 8.5 mg/dL
K (24 h): 4.2 meq/L
LDH (24 h): 82.4 IU/L
Na (24 h): 142.8 meq/L
PL (24 h): 152.2 mg/dL
RALB (24 h): 2.7 g/dL
TBIL (24 h): 0.088 mg/dL
TC (24 h): 93.4 mg/dL
TG (24 h): 217 mg/dL
TP (24 h): 5.9 g/dL
gamma-GTP (24 h): 1 IU/L
